Like-named read-outs stand apart in the source and are kept apart here.
Legend:
[1] = test system: STAT3; experiment: Western blot, STAT3 phosphorylation in CAL 27 cells; type: cell-based, human; conditions: single agents at concentrations close to their IC50 (HNK 20 μM, MGN 40 μM, MHNK 20 μM)
Method: (§1) CAL 27 cells were treated with vehicle control (DMSO), HNK (20 μM), MGN (40 μM), and MHNK (20 μM) for 4 h and then lysed with a lysis buffer containing a proteinase inhibitor cocktail (Cell Signaling Technology, Danvers, MA), sheared 10 times by passage through a 28-gauge needle, and centrifuged at 16,000 g for 30 min; the protein concentration of the supernatant was determined by the Bradford method. Lysates, normalized for equal protein loading, were analyzed by the PathScan RTK Signaling Array (Cell Signaling Technology, Danvers, MA) and the LI-COR Odyssey infrared imaging system (LI-COR Biosciences-Biotechnology, Lincoln, NE).
(§2) Cells were lysed with RIPA buffer containing a proteinase inhibitor cocktail (Fisher Scientific, Pittsburg, PA), sheared 10 times by passage through a 28-gauge needle, and centrifuged at 16,000 g for 30 min; the supernatants were normalized for protein concentration as determined by the Bradford method. Lysates were boiled for 5 min and resolved on 4–12% sodium dodecyl sulfate polyacrylamide gel electrophoresis (SDS-PAGE) gels (Invitrogen, Carlsbad, CA). The blots were probed with the following primary antibodies from Cell Signaling Technology (Danvers, MA): p-STAT3-Tyr705, p-STAT3-Ser727, HKII, P70, and P70S6K. The following antibodies were from Santa Cruz Biotechnology (Dallas, TX): anti-actin, anti-Prx1 and anti-Prx3.

[2] = test system: CAL 27 cells; experiment: Cell proliferation assay (IncuCyte real-time cell confluence); type: cell-based; conditions: Homo sapiens
Method: Cells were seeded in 96-well tissue culture plates at 1000–3000 cells per well. Twenty-four hours after seeding, cells were exposed to various concentrations of ME, whereas control cells received fresh medium with an equivalent amount of dimethyl sulfoxide (DMSO) vehicle. Plates were incubated at 37 °C under 5% CO2 and monitored using the IncuCyte Live Cell analysis system (Essen Bioscience, Ann Arbor, MI). […] All assays were performed in triplicate or quadruplicate.

[3] = test system: 4NQO-induced oral cancer; experiment: 4NQO-induced oral carcinogenesis in C57BL/6 J mice; type: in vivo; conditions: 20 mg/kg oral
Method: Oral tumors were induced by exposing mice to 4NQO at a dose of 50 μg/mL in drinking water for 16 consecutive weeks. One week following the first dose of 4NQO, mice were given ME or the individual active components in ME via oral administration (five days/week for the next 20 consecutive weeks). Animal body weights and 4NQO-water consumption were monitored weekly. 21 weeks after the start of 4NQO treatment, mice were imaged by MRI. Mice were euthanized and oral tissues were collected to assess total oral tumor volume (sum of V) for each mouse. A portion of normal appearing tissue and oral tumor from each mouse were flash frozen in liquid nitrogen for molecular analysis. Remaining oral tissues were embedded in paraffin for pathologic analysis as previously described and for immunohistochemistry (IHC) analysis of biomarkers. In addition, the oral cavity, esophagus, stomach/forestomach, lung, and other major organs were examined carefully for any signs of abnormality.
Mice were imaged using a 9.4 T MRI (Bruker, Billerica, MA) with a custom birdcage style Quadrature coil (Doty Scientific, Columbia, SC). Mice were anesthetized (2 min) initially in a chamber using a mixture of oxygen (3 L/min) and isofluorane (4%). Once an animal was fully anesthetized, optical lubricant was placed on each eye to prevent drying. […]

[4] = test system: hexokinase II (HKII); experiment: Western blot, HKII levels in CAL 27 cells; type: cell-based, human; conditions: single agents at concentrations close to their IC50 (HNK 20 μM, MGN 40 μM, MHNK 20 μM)
Method: as §1, §2

[5] = test system: p70S6K; experiment: Western blot, p70S6K phosphorylation in CAL 27 cells; type: cell-based, human; conditions: single agents at concentrations close to their IC50 (HNK 20 μM, MGN 40 μM, MHNK 20 μM)
Method: as §1, §2

[6] = CAL-27, read-out: IC50 as single agents, cell proliferation

SMILES	phosphorylation of STAT3 (p-STAT3 Ser727) [1]	IC50 ([2]; CAL 27 cells, single agents, read-out: IC50 as single agents, cell proliferation) [µM]	suppression of 4NQO-induced oral tumors as sole agent, compared with the other single agents [3]	levels of hexokinase II (HKII) [4]	IC50 [2, 6] [µM]	phosphorylation of p70S6K [5]
C=CCc1ccc(O)c(-c2ccc(O)c(CC=C)c2)c1 [HNK, 5,3′-diallyl-2,4′-dihydroxybiphenyl]	inhibited	19	–	–	–	–
C=CCc1ccc(O)c(-c2ccc(OC)c(CC=C)c2)c1 [MHNK, 3,5′-diallyl-2′-hydroxy-4-methoxybiphenyl]	–	–	greatest effect	decreased	19	–
C=CCc1ccc(O)c(-c2cc(CC=C)ccc2O)c1 [MGN, 5,5′-diallyl-2,2′-dihydroxybiphenyl]	–	–	–	–	49	inhibited

Source: article PMC7140380, “Magnolia extract is effective for the chemoprevention of oral cancer through its ability to inhibit mitochondrial respiration at complex I” (Cell Communication and Signaling : CCS, 2020)
